Results as given in PubChem BioAssay (NCI).
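Five concentrations, 48 hours, 96-well plates. TGI denotes the concentration required for complete inhibition of growth.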

system: KM20L2 colon; assay: DTP human tumour cell line panel, 48 h

Row | SMILES | TGI [µM]
1 | O=c1[nH]c2cc([N+](=O)[O-])ccc2nc1/C(=N/Nc1ccccc1)C(O)c1ccc(Cl)cc1Cl (stereo unspecified) | > 100
2 | Cc1cc(C)nc(NS(=O)(=O)c2ccc(NC(=O)c3cccc4c(Nc5ccc(S(=O)(=O)N=C(N)N)cc5)c5ccccc5nc34)cc2)n1 | > 100
3 | C#CCn1c(=O)[nH]c(=O)c2cccnc21 | > 100
4 | Cc1ccccc1NC(=O)C(=O)C1CN(c2ccccc2)N=C1N (stereo unspecified) | > 100
5 | CCOC(=O)NC(=O)c1cn(CCN2CCN(C(=O)CCCCCCCCCCNc3ncnc4c3ncn4C3OC(CO)C(O)C3O)CC2)c(=O)[nH]c1=O (stereo unspecified) | > 100

system: RXF-631 renal; assay: DTP human tumour cell line panel, 48 h

Row | SMILES | TGI [µM]
6 | O=c1[nH]c2cc([N+](=O)[O-])ccc2nc1/C(=N/Nc1ccccc1)C(O)c1ccc(Cl)cc1Cl (stereo unspecified) | > 100
7 | Cc1cc(C)nc(NS(=O)(=O)c2ccc(NC(=O)c3cccc4c(Nc5ccc(S(=O)(=O)N=C(N)N)cc5)c5ccccc5nc34)cc2)n1 | > 100
8 | C#CCn1c(=O)[nH]c(=O)c2cccnc21 | > 100
9 | Cc1ccccc1NC(=O)C(=O)C1CN(c2ccccc2)N=C1N (stereo unspecified) | > 100
10 | CCOC(=O)NC(=O)c1cn(CCN2CCN(C(=O)CCCCCCCCCCNc3ncnc4c3ncn4C3OC(CO)C(O)C3O)CC2)c(=O)[nH]c1=O (stereo unspecified) | > 100

system: OVCAR-5 ovarian; assay: DTP human tumour cell line panel, 48 h

Row | SMILES | TGI [µM]
11 | O=c1[nH]c2cc([N+](=O)[O-])ccc2nc1/C(=N/Nc1ccccc1)C(O)c1ccc(Cl)cc1Cl (stereo unspecified) | > 100
12 | Cc1cc(C)nc(NS(=O)(=O)c2ccc(NC(=O)c3cccc4c(Nc5ccc(S(=O)(=O)N=C(N)N)cc5)c5ccccc5nc34)cc2)n1 | > 100
13 | C#CCn1c(=O)[nH]c(=O)c2cccnc21 | > 100

system: XF 498 CNS; assay: DTP human tumour cell line panel, 48 h

Row | SMILES | TGI [µM]
14 | O=c1[nH]c2cc([N+](=O)[O-])ccc2nc1/C(=N/Nc1ccccc1)C(O)c1ccc(Cl)cc1Cl (stereo unspecified) | > 100
15 | Cc1cc(C)nc(NS(=O)(=O)c2ccc(NC(=O)c3cccc4c(Nc5ccc(S(=O)(=O)N=C(N)N)cc5)c5ccccc5nc34)cc2)n1 | > 100
16 | C#CCn1c(=O)[nH]c(=O)c2cccnc21 | > 100
17 | Cc1ccccc1NC(=O)C(=O)C1CN(c2ccccc2)N=C1N (stereo unspecified) | > 100
18 | CCOC(=O)NC(=O)c1cn(CCN2CCN(C(=O)CCCCCCCCCCNc3ncnc4c3ncn4C3OC(CO)C(O)C3O)CC2)c(=O)[nH]c1=O (stereo unspecified) | > 100

system: RXF 393 renal; assay: DTP human tumour cell line panel, 48 h

Row | SMILES | TGI [µM]
19 | O=c1[nH]c2cc([N+](=O)[O-])ccc2nc1/C(=N/Nc1ccccc1)C(O)c1ccc(Cl)cc1Cl (stereo unspecified) | > 100
20 | Cc1cc(C)nc(NS(=O)(=O)c2ccc(NC(=O)c3cccc4c(Nc5ccc(S(=O)(=O)N=C(N)N)cc5)c5ccccc5nc34)cc2)n1 | 52
21 | C#CCn1c(=O)[nH]c(=O)c2cccnc21 | > 100
22 | Cc1ccccc1NC(=O)C(=O)C1CN(c2ccccc2)N=C1N (stereo unspecified) | > 100

system: UACC-257 melanoma; assay: DTP human tumour cell line panel, 48 h

Row | SMILES | TGI [µM]
23 | O=c1[nH]c2cc([N+](=O)[O-])ccc2nc1/C(=N/Nc1ccccc1)C(O)c1ccc(Cl)cc1Cl (stereo unspecified) | > 100
24 | Cc1cc(C)nc(NS(=O)(=O)c2ccc(NC(=O)c3cccc4c(Nc5ccc(S(=O)(=O)N=C(N)N)cc5)c5ccccc5nc34)cc2)n1 | 60
25 | C#CCn1c(=O)[nH]c(=O)c2cccnc21 | > 100
26 | Cc1ccccc1NC(=O)C(=O)C1CN(c2ccccc2)N=C1N (stereo unspecified) | > 100
27 | CCOC(=O)NC(=O)c1cn(CCN2CCN(C(=O)CCCCCCCCCCNc3ncnc4c3ncn4C3OC(CO)C(O)C3O)CC2)c(=O)[nH]c1=O (stereo unspecified) | > 100

system: M14 melanoma; assay: DTP human tumour cell line panel, 48 h

Row | SMILES | TGI [µM]
28 | O=c1[nH]c2cc([N+](=O)[O-])ccc2nc1/C(=N/Nc1ccccc1)C(O)c1ccc(Cl)cc1Cl (stereo unspecified) | > 100
29 | Cc1cc(C)nc(NS(=O)(=O)c2ccc(NC(=O)c3cccc4c(Nc5ccc(S(=O)(=O)N=C(N)N)cc5)c5ccccc5nc34)cc2)n1 | > 100
30 | C#CCn1c(=O)[nH]c(=O)c2cccnc21 | > 100
31 | Cc1ccccc1NC(=O)C(=O)C1CN(c2ccccc2)N=C1N (stereo unspecified) | > 100
32 | CCOC(=O)NC(=O)c1cn(CCN2CCN(C(=O)CCCCCCCCCCNc3ncnc4c3ncn4C3OC(CO)C(O)C3O)CC2)c(=O)[nH]c1=O (stereo unspecified) | > 100

system: SF-539 CNS; assay: DTP human tumour cell line panel, 48 h

Row | SMILES | TGI [µM]
33 | O=c1[nH]c2cc([N+](=O)[O-])ccc2nc1/C(=N/Nc1ccccc1)C(O)c1ccc(Cl)cc1Cl (stereo unspecified) | > 100
34 | Cc1cc(C)nc(NS(=O)(=O)c2ccc(NC(=O)c3cccc4c(Nc5ccc(S(=O)(=O)N=C(N)N)cc5)c5ccccc5nc34)cc2)n1 | > 100
35 | Cc1ccccc1NC(=O)C(=O)C1CN(c2ccccc2)N=C1N (stereo unspecified) | > 100

system: SK-MEL-2 melanoma; assay: DTP human tumour cell line panel, 48 h

Row | SMILES | TGI [µM]
36 | O=c1[nH]c2cc([N+](=O)[O-])ccc2nc1/C(=N/Nc1ccccc1)C(O)c1ccc(Cl)cc1Cl (stereo unspecified) | > 100
37 | Cc1cc(C)nc(NS(=O)(=O)c2ccc(NC(=O)c3cccc4c(Nc5ccc(S(=O)(=O)N=C(N)N)cc5)c5ccccc5nc34)cc2)n1 | > 100
38 | C#CCn1c(=O)[nH]c(=O)c2cccnc21 | > 100
39 | CCOC(=O)NC(=O)c1cn(CCN2CCN(C(=O)CCCCCCCCCCNc3ncnc4c3ncn4C3OC(CO)C(O)C3O)CC2)c(=O)[nH]c1=O (stereo unspecified) | > 100

system: EKVX NSCLC; assay: DTP human tumour cell line panel, 48 h

Row | SMILES | TGI [µM]
40 | O=c1[nH]c2cc([N+](=O)[O-])ccc2nc1/C(=N/Nc1ccccc1)C(O)c1ccc(Cl)cc1Cl (stereo unspecified) | > 100
41 | Cc1cc(C)nc(NS(=O)(=O)c2ccc(NC(=O)c3cccc4c(Nc5ccc(S(=O)(=O)N=C(N)N)cc5)c5ccccc5nc34)cc2)n1 | 83.2
42 | Cc1ccccc1NC(=O)C(=O)C1CN(c2ccccc2)N=C1N (stereo unspecified) | > 100

system: SNB-78 CNS; assay: DTP human tumour cell line panel, 48 h

Row | SMILES | TGI [µM]
43 | O=c1[nH]c2cc([N+](=O)[O-])ccc2nc1/C(=N/Nc1ccccc1)C(O)c1ccc(Cl)cc1Cl (stereo unspecified) | > 100
44 | Cc1cc(C)nc(NS(=O)(=O)c2ccc(NC(=O)c3cccc4c(Nc5ccc(S(=O)(=O)N=C(N)N)cc5)c5ccccc5nc34)cc2)n1 | 99.2
45 | C#CCn1c(=O)[nH]c(=O)c2cccnc21 | > 100
46 | Cc1ccccc1NC(=O)C(=O)C1CN(c2ccccc2)N=C1N (stereo unspecified) | > 100
47 | CCOC(=O)NC(=O)c1cn(CCN2CCN(C(=O)CCCCCCCCCCNc3ncnc4c3ncn4C3OC(CO)C(O)C3O)CC2)c(=O)[nH]c1=O (stereo unspecified) | > 100

system: SF-295 CNS; assay: DTP human tumour cell line panel, 48 h

Row | SMILES | TGI [µM]
48 | O=c1[nH]c2cc([N+](=O)[O-])ccc2nc1/C(=N/Nc1ccccc1)C(O)c1ccc(Cl)cc1Cl (stereo unspecified) | > 100
49 | Cc1cc(C)nc(NS(=O)(=O)c2ccc(NC(=O)c3cccc4c(Nc5ccc(S(=O)(=O)N=C(N)N)cc5)c5ccccc5nc34)cc2)n1 | > 100
50 | C#CCn1c(=O)[nH]c(=O)c2cccnc21 | > 100
51 | CCOC(=O)NC(=O)c1cn(CCN2CCN(C(=O)CCCCCCCCCCNc3ncnc4c3ncn4C3OC(CO)C(O)C3O)CC2)c(=O)[nH]c1=O (stereo unspecified) | > 100

system: HOP-92 NSCLC; assay: DTP human tumour cell line panel, 48 h

Row | SMILES | TGI [µM]
52 | O=c1[nH]c2cc([N+](=O)[O-])ccc2nc1/C(=N/Nc1ccccc1)C(O)c1ccc(Cl)cc1Cl (stereo unspecified) | > 100
53 | Cc1cc(C)nc(NS(=O)(=O)c2ccc(NC(=O)c3cccc4c(Nc5ccc(S(=O)(=O)N=C(N)N)cc5)c5ccccc5nc34)cc2)n1 | 81.7
54 | C#CCn1c(=O)[nH]c(=O)c2cccnc21 | > 100
55 | Cc1ccccc1NC(=O)C(=O)C1CN(c2ccccc2)N=C1N (stereo unspecified) | > 100
56 | CCOC(=O)NC(=O)c1cn(CCN2CCN(C(=O)CCCCCCCCCCNc3ncnc4c3ncn4C3OC(CO)C(O)C3O)CC2)c(=O)[nH]c1=O (stereo unspecified) | > 100

system: ACHN renal; assay: DTP human tumour cell line panel, 48 h

Row | SMILES | TGI [µM]
57 | O=c1[nH]c2cc([N+](=O)[O-])ccc2nc1/C(=N/Nc1ccccc1)C(O)c1ccc(Cl)cc1Cl (stereo unspecified) | > 100
58 | Cc1cc(C)nc(NS(=O)(=O)c2ccc(NC(=O)c3cccc4c(Nc5ccc(S(=O)(=O)N=C(N)N)cc5)c5ccccc5nc34)cc2)n1 | > 100
59 | C#CCn1c(=O)[nH]c(=O)c2cccnc21 | > 100
60 | CCOC(=O)NC(=O)c1cn(CCN2CCN(C(=O)CCCCCCCCCCNc3ncnc4c3ncn4C3OC(CO)C(O)C3O)CC2)c(=O)[nH]c1=O (stereo unspecified) | > 100

system: HT29 colon; assay: DTP human tumour cell line panel, 48 h

Row | SMILES | TGI [µM]
61 | O=c1[nH]c2cc([N+](=O)[O-])ccc2nc1/C(=N/Nc1ccccc1)C(O)c1ccc(Cl)cc1Cl (stereo unspecified) | > 100
